From article PMC3116189, “Novel Natural Inhibitors of CYP1A2 Identified by in Silico and in Vitro Screening” (International Journal of Molecular Sciences, 2011)
Entries after “also recorded” stand apart in the source; their conditions may differ. Where a name gives a salt, the structure may show the parent alone.

What follows are compounds tested against T1, CYP1A2 (Homo sapiens, UniProt P05177) (assay: in vitro). Details: 1 μM active ingredient, Rh CYP1A2-mediated phenacetin O-deethylation, test dataset of 202 herb ingredients.
T1 sequence (P05177 1-516): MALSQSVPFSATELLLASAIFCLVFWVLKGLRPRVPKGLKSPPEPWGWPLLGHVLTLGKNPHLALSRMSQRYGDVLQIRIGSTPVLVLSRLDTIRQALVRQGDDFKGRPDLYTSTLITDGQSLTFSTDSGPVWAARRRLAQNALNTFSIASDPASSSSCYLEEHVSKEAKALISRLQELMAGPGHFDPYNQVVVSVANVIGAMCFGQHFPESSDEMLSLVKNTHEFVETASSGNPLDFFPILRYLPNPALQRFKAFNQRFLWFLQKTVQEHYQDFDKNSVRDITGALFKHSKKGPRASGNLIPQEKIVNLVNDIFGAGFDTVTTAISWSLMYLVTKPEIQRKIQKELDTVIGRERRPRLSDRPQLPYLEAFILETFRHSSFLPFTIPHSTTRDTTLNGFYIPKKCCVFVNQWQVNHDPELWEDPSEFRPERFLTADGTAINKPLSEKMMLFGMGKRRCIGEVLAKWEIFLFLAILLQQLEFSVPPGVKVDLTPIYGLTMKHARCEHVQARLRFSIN
Format: biochemical
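Also: recombinant CYP1A2 incubated for 1 h at 37 °C, with the reaction started by an NADPH-generating system.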
Procedure: A total of 18 candidate compounds selected by pharmacophore and docking were examined for their potential to inhibit rhCYP1A2 phenacetin O-deethylation activity at a test concentration of 1 μM.
The basic incubation medium contained 100 mM potassium phosphate buffer (PH 7.4), 50 pmol recombinant human CYP1A2, 25 μM phenacetin and 1 μM active ingredients. The final incubation volume was 200 μL. After 5 min pre-incubation at 37 °C, the reaction was initiated by the addition of NADPH-generating system (5 mM MgCl2, 10 mM glucose 6-phosphates, 1 mM NADPH, and 2.5 U per mL glucose 6-phosphate dehydrogenase). Incubations were performed in a 37 °C shaking water bath for 1 h. Reactions were stopped by adding 0.4 mL of ice-cold acetonitrile containing 0.2 mg/L tinidazole (IS). […] The column was maintained at 35 °C and the injection volume was 10 μL.

Row | Compound | % of Control Indication Activity (Mean)
1 | C/C=C(/C)C(=O)O[C@H]1[C@@H](OC(C)=O)c2c(ccc3ccc(=O)oc23)OC1(C)C [Praeruptorin A] | > 90%
2 | Cc1c(O)c(C)c2oc(-c3ccc(O)cc3)cc(=O)c2c1O [Syzalterin] | > 90%
3 | COc1cc(-c2oc3cc(O)cc(O)c3c(=O)c2O[C@@H]2O[C@H](CO[C@@H]3O[C@@H](C)[C@H](O)[C@@H](O)[C@H]3O)[C@@H](O)[C@H](O)[C@H]2O[C@@H]2O[C@@H](C)[C@H](O)[C@@H](O)[C@H]2O)ccc1O [Typhaneoside] | > 90%
4 | COc1ccc(-c2oc3cc(OC)c(OC)c(O)c3c(=O)c2OC)cc1O [Vitexicarpin] | > 90%
5 | C[C@@H]1O[C@@H](O[C@@H]2[C@@H](O)[C@H](O)[C@@H](CO)O[C@H]2c2c(O)cc(O)c3c(=O)cc(-c4ccc(O)cc4)oc23)[C@H](O)[C@H](O)[C@H]1O [Vitexin rhamnoside] | > 90%

Same assay, conditions: 1 μM test compound, 25 μM phenacetin, average of duplicate determinations

Row | Compound | % of Control Indication Activity
6 | OC[C@H]1O[C@@H](Oc2cc(O)cc(/C=C/c3ccc(O)cc3)c2)[C@H](O)[C@@H](O)[C@@H]1O [zhang 713, Piceid] | >90%

Same assay, conditions: 1 μM test concentration

Row | Compound | inhibitory activity to CYP1A2 (10% or greater inhibition at 1 μM)
7 | O=c1ccc2ccc(Oc3cc4cc(O)c(O)cc4oc3=O)cc2o1 [zhang 300, Edgeworthin] | found to have inhibition of CYP1A2 activity; also recorded: confirmed to have inhibitory activities to CYP1A2

Same assay, conditions: 1 μM test concentration; listed as 284

Row | Compound | inhibitory activity to CYP1A2 (10% or greater inhibition at 1 μM)
8 | COc1cc(C[C@H]2COC(=O)[C@@H]2Cc2ccc(O)c(OC)c2)ccc1O [zhang 284, (−)-Matairesinol] | found to have inhibition of CYP1A2 activity; also recorded: confirmed to have inhibitory activities to CYP1A2

Same assay, conditions: 1 μM test concentration; listed as 616

Row | Compound | inhibitory activity to CYP1A2 (10% or greater inhibition at 1 μM)
9 | COc1cc(C[C@H]2COC(=O)[C@@H]2Cc2ccc(O)c(OC)c2)ccc1O [zhang 616, (+)-Matairesinol] | found to have inhibition of CYP1A2 activity; also recorded: confirmed to have inhibitory activities to CYP1A2

Same assay, conditions: human, recombinant enzyme, pH 7.4

Row | Compound | activity at 1 h, 1 μM
10 | CN1CCc2cc3c(cc2C(=O)Cc2ccc4c(c2C1)OCO4)OCO3 [Protopine] | > 90%
11 | O=c1c(-c2ccc(O)cc2)coc2c([C@@H]3O[C@H](CO)[C@@H](O)[C@H](O)[C@H]3O)c(O)ccc12 [Puerarin] | > 90%
12 | C[C@@H]1O[C@@H](Oc2cc(O)c3c(=O)c(O)c(-c4ccc(O)cc4)oc3c2O)[C@H](O)[C@H](O)[C@H]1O [Rhodionin] | > 90%
13 | O=c1c2ccccc2nc2n1CCc1c-2[nH]c2ccccc12 [Rutaecarpine] | > 90%
14 | C[C@@H]1O[C@@H](OC[C@H]2O[C@@H](Oc3c(-c4ccc(O)c(O)c4)oc4cc(O)cc(O)c4c3=O)[C@H](O)[C@@H](O)[C@@H]2O)[C@H](O)[C@H](O)[C@H]1O [Rutin] | > 90%
15 | C[C@H]1O[C@@H](O[C@H]2CC[C@@]3(C)[C@@H](CC[C@]4(C)[C@@H]3C=C[C@]35OC[C@@]6(CCC(C)(C)C[C@H]63)[C@@H](O)C[C@]54C)[C@]2(C)CO)[C@H](O)[C@@H](O[C@@H]2O[C@H](CO)[C@@H](O)[C@H](O)[C@H]2O)[C@H]1O [Saikosaponin A] | > 90%
16 | OC[C@H]1O[C@@H](OCCc2ccc(O)cc2)[C@H](O)[C@@H](O)[C@@H]1O [Salidroside] | > 90%
17 | COc1cc(C2Oc3cc([C@H]4Oc5cc(O)cc(O)c5C(=O)[C@@H]4O)ccc3OC2CO)ccc1O (stereo partly shown) [Silibinin] | > 90%
18 | CNCC(O)c1ccc(O)cc1 (stereo not shown) [Synephrine] | > 90%
19 | COc1cc(/C=C/CO)cc(OC)c1O[C@@H]1O[C@H](CO)[C@@H](O)[C@H](O)[C@H]1O [Syringin] | > 90%
20 | COc1ccc2cc1Oc1ccc(cc1)C[C@H]1c3cc(c(OC)cc3CCN1C)Oc1c(OC)c(OC)cc3c1[C@H](C2)N(C)CC3 [Tetrandrine] | > 90%
21 | COc1cc(C(=O)O)ccc1O [Vanillic acid] | > 90%
22 | COc1cc(O)c2c(=O)cc(-c3ccc(O)c(O)c3)oc2c1 [zhang 272, 3′-hydroxy-Genkwanin] | < 90%

Same assay, conditions: human, recombinant human CYP1A2, pH 7.4, probe phenacetin (25 μM), O-deethylation to acetaminophen; 1 μM active ingredient, Rh CYP1A2-mediated phenacetin O-deethylation, test dataset of 202 herb ingredients; read-out: % of Control Indication Activity (Mean)

Row | Compound | activity at 1 h, 1 μM
23 | OC[C@H]1O[C@@H](Oc2cc(O)cc(/C=C/c3ccc(O)cc3)c2)[C@H](O)[C@@H](O)[C@@H]1O [Polydatin] | > 90%
24 | O=C(O)c1ccc(O)c(O)c1 [Protocatechuic acid] | > 90%
25 | COC(=O)C1=CC[C@@]23CC[C@@H]([C@@](C)(/C=C/C=C(\C)C(=O)O)OC2=O)[C@@]3(OC(C)=O)CC1 [Pseudolaric acid B] | > 90%
26 | CC(C)=C1CC[C@@H](C)CC1=O [Pulegone] | > 90%
27 | O=c1c(O)c(-c2ccc(O)c(O)c2)oc2cc(O)cc(O)c12 [Quercetin] | > 90%
28 | O=C(O)c1cc(O)c2c(c1)C(=O)c1cccc(O)c1C2=O [Rhein] | > 90%
29 | COc1cc2c(c(OC)c1OC)-c1c(cc(OC)c(OC)c1OC)C[C@](C)(O)[C@@H](C)C2 [Schizandrin] | > 90%
30 | COc1cc2ccc(=O)oc2cc1O [Scopoletin] | > 90%
31 | O=C(O)[C@H]1O[C@@H](Oc2cc3oc(-c4ccc(O)cc4)cc(=O)c3c(O)c2O)[C@H](O)[C@@H](O)[C@@H]1O [Scutellarin] | > 90%
32 | O=c1c(-c2ccc(O[C@@H]3O[C@H](CO)[C@@H](O)[C@H](O)[C@H]3O)cc2)coc2cc(O)cc(O)c12 [Sophoricoside] | > 90%
33 | Cc1coc2c1C(=O)C(=O)c1c-2ccc2c1CCCC2(C)C [Tanshinone IIA] | 28.3%
34 | COc1c(O[C@@H]2O[C@H](CO)[C@@H](O)[C@H](O)[C@H]2O)cc2occ(-c3ccc(O)cc3)c(=O)c2c1O [Tectoridin] | > 90%
35 | COc1cc2c(cc1OC)[C@@H]1Cc3ccc(OC)c(OC)c3CN1CC2 [Tetrahydropalmatine] | > 90%
36 | Cc1ccc(C(C)C)c(O)c1 [Thymol] | > 90%
37 | O=c1cc(-c2ccc(O)cc2)oc2c([C@@H]3O[C@H](CO)[C@@H](O)[C@H](O)[C@H]3O)c(O)cc(O)c12 [Vitexin] | > 90%
38 | COc1c(O)cc(O)c2c(=O)cc(-c3ccccc3)oc12 [Wogonin] | 74.6%

Same assay, conditions: human, recombinant human CYP1A2, pH 7.4, probe phenacetin (25 μM), O-deethylation to acetaminophen; 1 μM test compound, 25 μM phenacetin, average of duplicate determinations; read-out: % of Control Indication Activity

Row | Compound | activity at 1 h, 1 μM
39 | COc1cc(O)c2c(=O)c(O[C@@H]3O[C@H](CO)[C@H](O)[C@H](O)[C@H]3O)c(-c3ccc(O)c(O)c3)oc2c1 [zhang 83, rhamnetin 3-O-β-D-galactopyranoside] | > 90%
40 | COc1cc(O)c2c(=O)c(O[C@@H]3O[C@H](CO)[C@@H](O)[C@H](O)[C@H]3O)c(-c3ccc(O)c(O)c3)oc2c1 [zhang 84, rhamnetin 3-O-β-D-glucopyranoside] | > 90%
41 | CC(C)=CCC/C(C)=C/Cc1c(O)cc(O)c2c(=O)c3c(O)c4c(cc3oc12)OCO4 [zhang 89, 1,6,8-trihydroxy-2,3-methylenedioxy-5-geranylxanthone] | > 90%
42 | O=c1c(O[C@@H]2OC[C@@H](O)[C@@H](O)[C@@H]2O)c(-c2ccc(O)c(O)c2)oc2cc(O)cc(O)c12 [zhang 205, quercetin-3-O-β-D-arabinopyranoside] | > 90%
43 | O=c1c(OC2OC(CO)C(O)C2O)c(-c2ccc(O)c(O)c2)oc2cc(O)cc(O)c12 [zhang 206, quercetin-3-O-α-D-arabinofuranose] | > 90%
44 | COc1cc(C2Oc3c(ccc4ccc(=O)oc34)O[C@H]2CO)ccc1O (stereo partly shown) [zhang 271, 5′-demethoxy Daphneticin] | > 90%
45 | COc1cc(C[C@H]2COC(=O)[C@@H]2Cc2ccc(O)c(OC)c2)ccc1O [zhang 284, (−)-Matairesinol] | < 90%
46 | O=c1ccc2ccc(Oc3cc4cc(O)c(O)cc4oc3=O)cc2o1 [zhang 300, Edgeworthin] | < 90%

Same assay, conditions: recombinant enzyme

Row | Compound | % of Control Indication Activity (Mean)
47 | COc1cc(/C=C/C(=O)OCC[N+](C)(C)C)cc(OC)c1O [Sinapine] | > 90

Same assay, conditions: recombinant enzyme, pH 7.4

Row | Compound | activity
48 | CN1[C@@H]2C[C@@H](OC(=O)[C@H](CO)c3ccccc3)C[C@H]1[C@@H]1O[C@@H]12 [Scopolamine Hydrobromide] | > 90%
49 | COC1=C[C@@H]2[C@@H]3Cc4ccc(OC)c(O)c4[C@]2(CCN3C)CC1=O [Sinomenine] | > 90%

Same assay, conditions: recombinant enzyme, pH 7.4; 1 μM active ingredient, Rh CYP1A2-mediated phenacetin O-deethylation, test dataset of 202 herb ingredients; read-out: % of Control Indication Activity (Mean)

Row | Compound | activity at 1 h, 1 μM | activity
50 | O=c1ccc2cc3ccoc3cc2o1 [Psoralen] | 10.8% | –
51 | C[C@@H]1O[C@@H](Oc2c(-c3ccc(O)c(O)c3)oc3cc(O)cc(O)c3c2=O)[C@H](O)[C@H](O)[C@H]1O [Quercitrin] | – | > 90%
52 | C[C@]12CC[C@H](O)C[C@H]1CC[C@@H]1[C@@H]2CC[C@]2(C)[C@@H](c3ccc(=O)oc3)C[C@H]3O[C@]132 [Resibufogenin] | > 90% | –
53 | C[C@H]1CC[C@@]2(OC1)O[C@H]1C[C@H]3[C@@H]4CC[C@@H]5C[C@@H](O)CC[C@]5(C)[C@H]4CC[C@]3(C)[C@H]1[C@@H]2C [Sarsasapogenin] | – | > 90%
54 | c1cc2c(cc1[C@H]1OC[C@H]3[C@@H]1CO[C@@H]3c1ccc3c(c1)OCO3)OCO2 [Sesamin] | – | > 90%
55 | O=C1C[C@@H]2OCC=C3CN4CC[C@]56c7ccccc7N1[C@H]5[C@H]2[C@H]3C[C@H]46 [Strychnine] | > 90% | –
